Measurements: patent publication US20090060875A1, “HCV Vaccines for Chronic HCV Patients” (INTERCELL AG, priority 2004, published 2009)

Columns and labels:
[1] = standard therapy, background; cited from earlier work
CD4+ Helper-T-cells = experiment: T-cell proliferation assay ([3H]-thymidine) in phase 2 study of chronic HCV patients; type: in vivo, human; settings: vaccinations at month 0-5, stimulation indices, median of 12 patients per group (FIG. 1), listed as poly-L-Arginine alone
Text: (§1) In the present clinical study, each group consisted of 12 subjects, positive for HLA-A2. Subjects received 6 vaccinations in monthly intervals (at visits 3 to 8). Blood for immunological analyses was drawn prior vaccination and at visits 6 to 8, one month after last vaccination (visit 9), 3 months after last vaccination (visit 10) and 6 months after last vaccination (visit 11). For immunological monitoring of clinical trials, state-of-the-art T cell assays to determine immunological endpoints under GLP/GCP compliance were applied: Interferon-gamma ELIspot Assay, T cell Proliferation Assay, HLA-tetramer/FACS assay. These assays allow reliable measurements of epitope-specific T cell responses induced by the therapeutic HCV vaccine IC41. The vaccine-induced T cell immune responses serve as surrogate parameters of efficacy (Keilholz et al. 2002).
As primary endpoint T-cell immunogenicity was determined by a T-cell proliferation assay. […] Proliferation of cells can be measured by a variety of means; among the most sensitive approaches ranks incorporation of radioactively labeled thymidine into DNA synthesized prior cell division. […] Cells are then harvested onto a filter plate: medium containing free radioactivity is washed away, whereas DNA sticks to the filter. Incorporated radioactivity can be quantified by means of a beta-scintillation counter determining counts-per-minute (cpm). […]

[2] = tested on: interferon gamma secreting T-cells (CD4+ Helper- and CD8+ cytotoxic T-cells); experiment: Interferon-gamma ELIspot assay in phase 2 study of chronic HCV patients; type: in vivo, human; settings: chronic HCV patients (FIG. 2)
Text: as §1
As secondary endpoints T-cell immunogenicity was determined by interferon gamma ELIspot. ELIspot allows quantification of peptide-specific, functional (i.e. cytokine-secreting) T cells in biological samples like human blood. The basis of the assay is that, T cells upon stimulation with a peptide specifically recognized by the T cell receptor react by secretion of cytokines like IFN-γ. […]
The filter-wells of this plate are coated with a Mab specific for IFN-γ. […] Spots can be counted using automated plate readers. […]

Molecule	Side effects [1]	CD4+ Helper-T-cell proliferation (induction of significant proliferative response) (CD4+ Helper-T-cells)	Induction of interferon gamma secreting T-cells (type I T-cell response) [2]
NC(=O)c1ncn([C@@H]2O[C@H](CO)[C@@H](O)[C@H]2O)n1 [Ribavirin, ribavirin]	teratogenic, mutagenic and carcinogenic potency	–	–
Poly-L-Arginine	–	not and neither peptides alone nor poly-L-Arginine alone have this ability	cannot induce any response
